Where no end group is shown, it is not given here. [ ]: non-standard residue; d: D form. The star is where a group is joined. Octanoyl = CCCCCCCC(=O)*

The source of these data is US7803768B2, “Method for treatment of hyperglycemia in a subject in need thereof” (Kyoto University, priority 2005, dated 2010).

The test system of experiment [1] is neonatal rat STZ model. Nature of the experiment: neonatal rat STZ model, human ghrelin or GHRP-2 (Examples 3 and 4). The experiment is classed as in vivo, Sprague Dawley rats. To be noted: 9th week after birth; for Body weights: FIG. 7A / FIG. 8A; for Pancreas weights: FIG. 7B / FIG. 8B; for Insulin Content (Gut Side): calculated from gut-side pancreas sample; for Insulin Content (Gut Side) / Insulin Content (Spleen Side): mean ± SE; for Insulin Content (Spleen Side): calculated from spleen-side pancreas sample. The source says: Sprague Dawley female pregnant rats, purchased from Charles River, were allowed free access to tap water and a standard pellet rat diet (CRF-1, Oriental Yeast Co., Ltd.), and natural deliveries were allowed. Three experimental groups as follows were set: control group wherein rats received single peritoneal injection of citrate buffer immediately after birth; STZ-vehicle group wherein rats received single peritoneal injection of STZ, and then vehicle (5% mannitol solution) was subcutaneously administered twice a day from the 2nd day after birth for 7 days; and STZ-human ghrelin group wherein rats received single peritoneal injection of STZ, and then human ghrelin (sequence No. 1, 100 μg/kg body weight) was subcutaneously injected twice a day from a 2nd day after birth for 7 days.
STZ was prepared and administered as in the example 1. Each male neonatal rat was checked for urinary sugar on the 2nd day with Pretest 3aII (Wako Pure Chemical Industries, Ltd.). Only rats that were glycosuric (3+ value with Pretest 3aII) at day 2 after birth were included in the following studies. The rats were weaned in the evening on the 20th day after birth. Blood samples were collected from tail vein while awake at 8th week (57th day) after birth to measure plasma glucose and insulin concentrations. In addition, after measuring body weight at 9th week (62nd or 63rd day) after birth, blood samples were collected from abdominal aorta under anesthesia with intraperitoneal injection of pentobarbital sodium (50 mg/kg). Whole pancreases were removed and weighed. Thereafter, the pancreases were divided into two pieces and kept for insulin content measurement. Blood samples were centrifuged immediately at 4° C. to prepare plasma samples, and kept at −80° C. until measurement of glucose and insulin concentrations. Glucose concentration was measured using a Glucose CII-test Wako (Wako Pure Chemical Industries, Ltd.), while insulin concentration was measured using a highly sensitive insulin measurement kit (Morinaga Institute of Biological Science, Inc.).
Experimental materials, experimental methods and evaluation methods were similar to those in the example 2. As a test substance, 100 μg/kg of GHRP-2 was subcutaneously administered twice a day from a 2nd day after birth for 7 days (an STZ-GHRP-2 group).

The test system of experiment [2] is n0-STZ model. Put plainly: n0-STZ model: neonatal streptozotocin-treated rats given rat ghrelin (Example 1). The experiment is classed as in vivo, Sprague Dawley rats. As to conditions: for Plasma Insulin: 100 μg/kg s.c. twice a day, 2nd to 8th day after birth, mean ± SE. The source says: Female or male Sprague Dawley rats, purchased from Charles River were, were allowed free access to tap water and a standard pellet rat diet (352 kcal/100 g, CE-2, CLEA). Females were caged with a male for one night, and pregnancy was detected by abdominal palpation 14 days later. Natural birth occurred 22 days after mating. We examined three experimental groups as follows: a control group (Sprague Dawley rats) wherein newborn rats received a single intraperitoneal injection of citrate buffer; an n0-STZ group wherein rats received a single intraperitoneal injection of streptozotocin (STZ); and an n0-STZ/ghrelin group wherein rats received a single intraperitoneal injection of streptozotocin, and then received rat-derived ghrelin (hereafter reffered to as rat ghrelin, sequence No. 3, 100 μg/kg body weight) by subcutaneous injection twice a day on the 2nd to 8th day after birth for 7 days.
Streptozotocin (Sigma, 100 mg/kg body weight) was dissolved in citrate buffer (0.05 mmol/L, pH4.5) and immediately injected intraperitoneally once into a rat immediately after birth. Pups were left with their mothers. Each neonatal rat was checked for urinary sugar on the 2nd day with Multistix SG (Bayer Medical). Only rats that were glycosuric (3+ value with Multistix SG test) at day 2 after birth were included in the n0-STZ model group. Animals were killed at 21 or 70 days by bleeding under anesthesia with intraperitoneal injection of pentobarbital sodium (50 mg/kg).
After excision, pancreases were removed and weighed. To measure insulin content, pancreases (35-50 mg) were homogenized and centrifuged in 5 ml of acid-ethanol (0.15 M HCl 75% (v/v)-ethanol solution), and the supernatants were kept at −80° C. For immunohistochemistry, additional pancreases were fixed in 4% paraformaldehyde fixative for 24 hours, and embedded in paraffin.
Insulin and pdx-1 were detected immunohistochemically on 3 μm-thick tissue sections using an indirect peroxidase-labeling technique. Each section was incubated with a primary antibody (guinea pig anti-porcine insulin, DACO) or (rabbit anti-mouse/rat IDX-1; CHEMICON) for 1 hour. Staining was performed by incubation with 3,3′-diaminobenzidine tetrahydrochloride (DAB) kit (DakoCytomation). Quantitative evaluations of total β cells area were performed by a computer-assisted image analysis procedure using an Olympus BX 51 microscope connected to a digital camera DP 12 and Mac SCOPE Ver2.6 software (Mitani, Fukui, Japan). β cells area and total pancreatic section area were evaluated for each stained section. A relative volume of β cells was determined by a sterological morphological method, with calculation of the ratio between the areas occupied by immunoreactive cells and those occupied by total pancreatic cells.
Total RNA was extracted from rat pancreases as previously reported (Biochem. Biophys. Res. Commun., 214, pp. 239-246, 1995). To synthesis the first-strand cDNA, the extracted products were used as templates in reactions containing RT (Invitrogen) and the target 3′ primer. An RT-PCR analysis was performed according to a method previously reported (Biochem. Biophys. Res. Commun., 214, pp. 239-246, 1995). The first strand cDNA was used in subsequent PCR analyses. In the PCR analyses, oligonucleotide primers as follows were used for each target cDNA. The identity of the PCR product was confirmed by agarose gel electrophoresis.
Realtime PCR was performed as follows. The cDNA (1 μl) was mixed with 2×PCR Master Mix (Applied Biosystems) (25 μl), sterilized distilled water (23 μl), and sense and antisense primers ([…], 0.5 μl) of insulin and Pdx-1. Forty cycles of PCR amplification were carried out using the thermal cycler system (ABI PRISM 7700, Applied Biosystems, Japan), for 15 seconds at 95° C. followed by 60 seconds at 60° C. The concentration of each mRNA product was quantified using calibration curves expressing the fluorescence intensity against the amount of standardized PCR product. […]

Experiment [3] concerns β cells. Put plainly: β cell replication, phospho-histone H3 / insulin double staining of pancreatic sections (Example 2). Type of experiment: in vivo, rat. As to conditions: for Double positive cells for phospho-histone H3 and insulin: 10-week-old rats, FIG. 6, no significant difference among four groups; for Increase of double positive cells for phospho-histone H3 and insulin: 21-day-old rats, FIG. 5B. The method, then:
Pancreatic sections that had not been used for morphological studies were used to examine β cell replication. The sections were subjected to double staining for phospho-histone H3 (Ser10) and insulin. The sections were incubated overnight with 50-fold dilution of anti-phospho-histone H3 (Ser10) antibody (Cell Signaling Technology) at 4° C. Thereafter, the sections were incubated with guinea pig anti-insulin antibody at a room temperature for 1 hour. After washing with PBS for 6 times, the sections were incubated at a room temperature for 30 minutes in a blocking solution with a secondary antibody conjugated with fluorescence (Alexa Fluor 488 and 546, Molecular Probe). After washing with PBS, sections were mounted with mounting medium containing DAPI (Vector Laboratories) and examined with confocal laser scanning microscopy (Leica Microsystems). At least 1,000β cells were counted per section.

Experiment [4] concerns high fatty acid diet-fed mice. Nature of the experiment: high fatty acid diet-fed mice with linoleic acid loading (Example 5). Type of experiment: in vivo, Crj:CD1(ICR) mice. An excerpt:
Male Crj:CD1(ICR) mice (Charles River Japan) were allowed free access to tap water and a standard pellet mouse diet (CRF-1, Oriental Yeast Co., Ltd.) (with lighting hours from 21 to 9 o'clock). Normal control mice were kept in this condition (normal diet, an ND group). A high fatty acid diet group (High Fat Diet, an HFD group) was allowed to freely take a mixture of 5 g CRF-1 (powder) with 1 g linoleic acid as a high fatty acid diet from the 4th week after birth. As test substances, a vehicle (5% mannitol solution) (an HFD-vehicle group) or 300 μg/kg of human ghrelin (an HFD-ghrelin group) was administered twice a day (once a day in a holiday) for about 7 weeks from the day of the start of high fatty acid diet load. Changes in the body weights and ad lib blood sugar levels after the start of test substance administration were monitored. In addition, mice were fasted overnight on the 50th day from the start of test substance administration, and then linoleic acid (1 mL/kg, intraperitoneal administration) was acutely loaded on a next day to measure plasma glucose and plasma insulin concentrations 1 hour later. The blood sugar value was measured using Antisense II (Horiba, Ltd.), while plasma glucose concentration and insulin concentration were measured using a Glucose CII-test Wako (Wako Pure Chemical Industries, Ltd.) and a Lebis insulin kit (TMB for a mouse) (Shibayagi Co. Ltd.), respectively.

For “A[dW]AW[dF]K-NH2 [GHRP-2, reference compound]”, in experiment [1], the “Insulin contents in pancreases relative to the STZ-vehicle group” value was “higher than those of the STZ-vehicle group”, the Body weights entry is on record as “not significantly different from those of the control group”, the Pancreas weights result was “greater than those of the STZ-vehicle group” and the “Insulin Content (Gut Side)” value is listed as 81.7 ± 4.6 μg/pancreas. For the same substance, the “Insulin Content (Spleen Side)” value in experiment [1] was 146.8 ± 10.9 μg/pancreas.
“GSS(n-octanoyl)FLSPEHQKAQQRKESKKPPAKLQPR [rat ghrelin]”: the “Plasma Insulin” value in experiment [2] (10-week-old rats) amounted to 0.93 ± 0.49 ng/mL; in experiment [2] (21-day-old rats), 0.35 ± 0.17 ng/mL. Also, the “Insulin mRNA expression levels within the pancreases” value in experiment [2] (21st day after birth, FIG. 1A) is reported as “returned to levels similar to those of the control group”. Further, the “pdx-1 gene expression levels in pancreas” value in experiment [2] (21st day after birth, FIG. 2A) is given as “recovered to the levels similar to those in the control group”. Also, in experiment [2] (21st day after birth, FIGS. 1B-E), the “Islet of Langerhans size, insulin immunostaining of pancreases” value was “larger than that of the n0-STZ group but smaller than that of the control group”. For the same substance, in experiment [2] (70th day after birth (adult rats), FIG. 4A), the “Pdx-1 gene expression in pancreas” value is given as “returned to the level close to that of the control group”. Also, the “Insulin mRNA expression in pancreas” value in experiment [2] (70th day after birth (adult stage), FIG. 3B) was “a level similar to that of the control group”. Further, the “Islet of Langerhans size, insulin immunohistochemical staining” value in experiment [2] (70th day after birth, FIGS. 3C-F) is on record as “larger than that of the n0-STZ group but smaller than that of the control group”. Besides, the “Double positive cells for phospho-histone H3 and insulin” value in experiment [3] (STZ model) is “tendency for double positive cells for phospho-histone H3 and insulin to increase”; in experiment [3] (control group (no STZ)) it was “tended to decrease”. Besides, the “Increase of double positive cells for phospho-histone H3 and insulin” value was “approximately 1.7 fold” in experiment [3] (ghrelin group as compared to control rats) and roughly 15 fold in experiment [3] (n0-STZ/ghrelin group as compared to n0-STZ rats).
Consider “GSS(n-octanoyl)FLSPEHQRVQQRKESKKPPAKLQPR (GSS(Octanoyl)FLSPEHQRVQQRKESKKPPAKLQPR; listed as Homo Sapiens) [human ghrelin]”, for which, in experiment [1], the “Insulin contents in pancreases relative to the STZ-vehicle group” value is “about twice as high as those of the STZ-vehicle group”, the Body weights entry is on record as “comparable to those of the control group”, the Pancreas weights result is “significantly greater than those of the STZ-vehicle group” and the “Insulin Content (Gut Side)” value was 63.0 ± 6.7 μg/pancreas. Moreover, the “Insulin Content (Spleen Side)” value in experiment [1] was 120.9 ± 14.1 μg/pancreas. Moreover, the “ad lib blood sugar levels” value in experiment [4] (43rd day of high fatty acid diet and 300 μg/kg s.c. administration, FIG. 9B) is reported as “tended to decrease as compared to the HFD-vehicle group”. In experiment [4] (1 hour after 1 mL/kg linoleic acid i.p., FIG. 10B), the “Plasma glucose concentrations after linoleic acid loading” value is “tended to be low as compared to the HFD-vehicle group”. Also, in experiment [4] (after 50 days of high fatty acid diet and 300 μg/kg administration, fasted overnight, mean of 8 mice ± standard error), the “Plasma glucose concentrations before linoleic acid loading” value worked out at 141 ± 5 mg/dL. For the same substance, the “Plasma insulin concentrations after linoleic acid loading” value in experiment [4] (after 50 days, fasted overnight, 1 hour after 1 mL/kg linoleic acid i.p., FIG. 10A) is “higher than those of the HFD-vehicle group”.
